The target in experiment [1] is T1, Adenosine receptor A3 (Homo sapiens, UniProt P0DMS8).
T1 sequence (P0DMS8 whole entry): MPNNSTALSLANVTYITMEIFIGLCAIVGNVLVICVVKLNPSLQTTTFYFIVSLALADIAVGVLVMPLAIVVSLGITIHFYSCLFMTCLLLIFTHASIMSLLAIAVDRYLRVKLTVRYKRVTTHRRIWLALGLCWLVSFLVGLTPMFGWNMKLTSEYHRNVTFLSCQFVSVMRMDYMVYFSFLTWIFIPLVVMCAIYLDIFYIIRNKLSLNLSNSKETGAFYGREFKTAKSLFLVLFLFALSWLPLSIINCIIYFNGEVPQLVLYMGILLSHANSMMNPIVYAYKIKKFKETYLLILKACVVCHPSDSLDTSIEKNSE

The target in experiment [2] is T2, Cholecystokinin receptor type A (Homo sapiens, UniProt P32238).
T2 sequence (P32238 whole entry): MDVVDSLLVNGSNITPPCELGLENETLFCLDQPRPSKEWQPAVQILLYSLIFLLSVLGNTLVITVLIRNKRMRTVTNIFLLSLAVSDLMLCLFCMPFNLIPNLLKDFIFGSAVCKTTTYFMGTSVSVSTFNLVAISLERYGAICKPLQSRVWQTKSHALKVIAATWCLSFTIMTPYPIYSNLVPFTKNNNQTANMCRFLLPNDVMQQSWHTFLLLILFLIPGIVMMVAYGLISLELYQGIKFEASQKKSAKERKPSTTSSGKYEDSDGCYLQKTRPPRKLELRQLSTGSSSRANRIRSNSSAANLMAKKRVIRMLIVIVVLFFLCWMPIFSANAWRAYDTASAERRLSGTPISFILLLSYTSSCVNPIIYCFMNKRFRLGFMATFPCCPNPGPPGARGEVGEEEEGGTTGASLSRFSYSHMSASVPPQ

The target of experiment [3] is Gamma-aminobutyric acid receptor subunit alpha-1 (Rattus norvegicus, UniProt P62813). It is filed as functional.
For experiment [4], the target named is Bile salt export pump (Homo sapiens, UniProt O95342). The format is functional.
For experiment [5], the target named is T3, Muscarinic acetylcholine receptor M2 (Homo sapiens, UniProt P08172).
T3 sequence (P08172 whole entry): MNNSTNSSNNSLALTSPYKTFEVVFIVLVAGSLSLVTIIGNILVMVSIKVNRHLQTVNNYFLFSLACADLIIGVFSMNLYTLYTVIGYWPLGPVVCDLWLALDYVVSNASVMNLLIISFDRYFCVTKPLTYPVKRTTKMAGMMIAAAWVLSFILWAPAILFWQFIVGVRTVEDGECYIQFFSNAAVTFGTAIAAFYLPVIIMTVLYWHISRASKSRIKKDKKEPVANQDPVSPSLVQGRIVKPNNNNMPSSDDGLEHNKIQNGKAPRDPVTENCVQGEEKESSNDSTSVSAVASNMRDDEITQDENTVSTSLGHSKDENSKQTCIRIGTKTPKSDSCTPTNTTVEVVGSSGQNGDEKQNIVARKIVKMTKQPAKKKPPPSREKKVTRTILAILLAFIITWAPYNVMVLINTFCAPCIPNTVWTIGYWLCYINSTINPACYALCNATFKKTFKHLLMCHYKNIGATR
It is filed as functional, cell-based.

For experiment [6], the target named is T4, Type-1 angiotensin II receptor (Homo sapiens, UniProt P30556).
T4 sequence (P30556 whole entry): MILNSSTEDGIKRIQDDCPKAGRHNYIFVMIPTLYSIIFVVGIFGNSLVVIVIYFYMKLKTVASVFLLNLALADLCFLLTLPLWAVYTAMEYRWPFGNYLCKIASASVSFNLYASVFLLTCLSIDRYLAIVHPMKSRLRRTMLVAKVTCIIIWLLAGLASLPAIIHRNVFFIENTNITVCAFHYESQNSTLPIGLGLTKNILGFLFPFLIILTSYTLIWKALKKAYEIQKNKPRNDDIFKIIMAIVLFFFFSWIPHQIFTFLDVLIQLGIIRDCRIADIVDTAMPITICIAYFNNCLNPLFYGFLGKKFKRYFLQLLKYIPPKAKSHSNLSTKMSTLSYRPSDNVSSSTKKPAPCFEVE

In experiment [7] the target is Neuronal acetylcholine receptor subunit alpha-4 (Homo sapiens, UniProt P43681).
Experiment [8] has as its target T5, Adenosine receptor A1 (Homo sapiens, UniProt P30542).
T5 sequence (P30542 whole entry): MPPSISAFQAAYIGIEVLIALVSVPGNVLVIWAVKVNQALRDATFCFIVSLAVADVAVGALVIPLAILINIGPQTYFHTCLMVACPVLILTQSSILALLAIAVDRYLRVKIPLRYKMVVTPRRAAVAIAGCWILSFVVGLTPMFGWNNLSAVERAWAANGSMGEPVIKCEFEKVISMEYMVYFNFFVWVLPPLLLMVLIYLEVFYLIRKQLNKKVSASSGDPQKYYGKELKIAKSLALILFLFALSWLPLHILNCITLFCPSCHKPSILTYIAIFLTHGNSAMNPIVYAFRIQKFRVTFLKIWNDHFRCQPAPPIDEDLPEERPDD

For experiment [9], the target named is Melanocortin receptor 3 (Homo sapiens, UniProt P41968).
The target in experiment [10] is T6, Prostaglandin G/H synthase 1 (Rattus norvegicus, UniProt Q63921).
T6 sequence (Q63921 whole entry): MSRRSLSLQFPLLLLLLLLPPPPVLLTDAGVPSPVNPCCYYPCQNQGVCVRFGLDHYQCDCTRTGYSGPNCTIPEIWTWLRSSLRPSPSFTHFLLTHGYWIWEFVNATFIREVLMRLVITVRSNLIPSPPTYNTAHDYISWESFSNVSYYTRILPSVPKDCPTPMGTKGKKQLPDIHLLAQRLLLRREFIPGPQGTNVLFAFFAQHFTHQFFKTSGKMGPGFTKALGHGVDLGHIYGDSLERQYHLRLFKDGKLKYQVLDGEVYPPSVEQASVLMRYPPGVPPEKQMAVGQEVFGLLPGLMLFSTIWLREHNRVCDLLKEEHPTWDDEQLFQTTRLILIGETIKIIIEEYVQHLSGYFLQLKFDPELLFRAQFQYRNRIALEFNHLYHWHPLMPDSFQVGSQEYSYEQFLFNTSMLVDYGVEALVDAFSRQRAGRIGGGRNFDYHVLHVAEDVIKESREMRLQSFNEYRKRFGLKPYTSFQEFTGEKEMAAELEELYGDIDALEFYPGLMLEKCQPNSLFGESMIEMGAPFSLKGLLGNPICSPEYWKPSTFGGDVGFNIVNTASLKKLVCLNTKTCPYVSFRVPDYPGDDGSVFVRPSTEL
The format is functional.
Also: assay procedure not described here.

Sequence of Melanocortin receptor 3 (P41968 whole entry): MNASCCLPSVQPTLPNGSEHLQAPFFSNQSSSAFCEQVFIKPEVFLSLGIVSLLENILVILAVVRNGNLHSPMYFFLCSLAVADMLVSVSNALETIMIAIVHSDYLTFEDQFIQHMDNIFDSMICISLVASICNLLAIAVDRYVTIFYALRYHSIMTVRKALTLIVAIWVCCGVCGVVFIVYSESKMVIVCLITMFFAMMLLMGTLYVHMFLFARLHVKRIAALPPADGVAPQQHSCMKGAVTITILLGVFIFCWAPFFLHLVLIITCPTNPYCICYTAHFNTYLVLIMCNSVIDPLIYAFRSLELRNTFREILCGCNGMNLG
Sequence of Gamma-aminobutyric acid receptor subunit alpha-1 (P62813 whole entry): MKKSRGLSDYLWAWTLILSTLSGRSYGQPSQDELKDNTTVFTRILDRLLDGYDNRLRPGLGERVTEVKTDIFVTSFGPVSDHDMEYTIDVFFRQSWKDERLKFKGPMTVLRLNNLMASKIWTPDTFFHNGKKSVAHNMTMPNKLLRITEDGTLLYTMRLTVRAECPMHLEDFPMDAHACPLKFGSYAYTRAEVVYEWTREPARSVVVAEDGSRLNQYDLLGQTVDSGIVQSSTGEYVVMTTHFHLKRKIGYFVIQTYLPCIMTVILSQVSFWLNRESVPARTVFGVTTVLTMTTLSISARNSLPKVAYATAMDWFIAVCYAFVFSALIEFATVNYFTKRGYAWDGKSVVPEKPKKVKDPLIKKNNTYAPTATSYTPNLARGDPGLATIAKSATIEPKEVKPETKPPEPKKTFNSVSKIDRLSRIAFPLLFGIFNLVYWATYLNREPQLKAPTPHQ
Sequence of Neuronal acetylcholine receptor subunit alpha-4 (P43681 whole entry): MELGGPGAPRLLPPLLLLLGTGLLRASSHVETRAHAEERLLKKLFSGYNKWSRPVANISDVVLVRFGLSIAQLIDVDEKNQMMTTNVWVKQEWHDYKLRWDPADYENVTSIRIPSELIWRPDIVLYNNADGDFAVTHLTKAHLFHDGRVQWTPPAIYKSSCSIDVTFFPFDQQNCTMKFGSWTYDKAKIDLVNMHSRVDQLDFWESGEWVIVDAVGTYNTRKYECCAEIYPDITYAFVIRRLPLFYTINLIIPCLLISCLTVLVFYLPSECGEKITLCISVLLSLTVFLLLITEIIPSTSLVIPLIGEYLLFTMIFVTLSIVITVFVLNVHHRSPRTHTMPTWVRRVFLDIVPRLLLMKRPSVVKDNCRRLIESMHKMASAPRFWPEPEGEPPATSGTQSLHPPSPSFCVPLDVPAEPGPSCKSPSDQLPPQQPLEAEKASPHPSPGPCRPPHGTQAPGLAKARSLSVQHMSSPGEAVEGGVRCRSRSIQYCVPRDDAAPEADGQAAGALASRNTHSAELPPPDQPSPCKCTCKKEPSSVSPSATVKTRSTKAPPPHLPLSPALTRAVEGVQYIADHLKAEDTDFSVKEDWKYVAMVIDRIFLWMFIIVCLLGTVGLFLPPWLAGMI
Sequence of Bile salt export pump (O95342 whole entry): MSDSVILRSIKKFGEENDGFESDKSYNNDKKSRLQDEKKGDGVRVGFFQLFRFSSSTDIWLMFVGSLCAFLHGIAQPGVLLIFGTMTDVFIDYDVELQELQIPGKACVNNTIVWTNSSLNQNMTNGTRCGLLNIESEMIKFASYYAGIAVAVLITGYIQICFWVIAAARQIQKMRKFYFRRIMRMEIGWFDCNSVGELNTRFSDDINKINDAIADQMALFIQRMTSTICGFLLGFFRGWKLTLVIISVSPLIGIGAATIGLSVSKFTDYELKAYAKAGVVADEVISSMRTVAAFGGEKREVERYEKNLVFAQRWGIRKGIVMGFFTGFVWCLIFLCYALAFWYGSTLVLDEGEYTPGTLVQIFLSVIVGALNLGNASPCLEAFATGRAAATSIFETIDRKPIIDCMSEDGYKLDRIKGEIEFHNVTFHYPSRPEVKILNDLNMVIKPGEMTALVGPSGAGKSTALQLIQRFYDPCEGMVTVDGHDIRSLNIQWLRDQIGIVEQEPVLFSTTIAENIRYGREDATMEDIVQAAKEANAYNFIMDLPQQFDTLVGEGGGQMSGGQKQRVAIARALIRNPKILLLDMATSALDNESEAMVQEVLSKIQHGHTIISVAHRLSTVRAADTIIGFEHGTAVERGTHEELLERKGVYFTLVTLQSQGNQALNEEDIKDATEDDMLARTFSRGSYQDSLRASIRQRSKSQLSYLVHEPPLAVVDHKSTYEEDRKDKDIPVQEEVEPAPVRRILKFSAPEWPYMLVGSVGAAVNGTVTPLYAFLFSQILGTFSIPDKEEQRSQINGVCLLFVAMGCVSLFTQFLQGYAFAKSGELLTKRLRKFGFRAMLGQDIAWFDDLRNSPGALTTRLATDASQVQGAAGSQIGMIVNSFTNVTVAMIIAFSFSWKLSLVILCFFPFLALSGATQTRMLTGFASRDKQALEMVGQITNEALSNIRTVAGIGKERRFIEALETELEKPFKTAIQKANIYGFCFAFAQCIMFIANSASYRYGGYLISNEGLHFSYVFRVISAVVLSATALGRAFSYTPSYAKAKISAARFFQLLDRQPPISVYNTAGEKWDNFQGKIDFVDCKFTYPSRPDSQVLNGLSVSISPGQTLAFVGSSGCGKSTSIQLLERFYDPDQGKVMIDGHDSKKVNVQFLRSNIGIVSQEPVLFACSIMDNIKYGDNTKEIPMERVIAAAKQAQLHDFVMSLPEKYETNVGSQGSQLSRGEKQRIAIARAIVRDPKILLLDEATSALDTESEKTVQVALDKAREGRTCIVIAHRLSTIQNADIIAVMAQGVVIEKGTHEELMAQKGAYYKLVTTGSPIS

Turning to `COC(=O)C1=C(C)NC(C)=C(C(=O)OCC(C)C)C1c1ccccc1[N+](=O)[O-]` (stereo not given) [NISOLDIPINE], the concentration at half-maximal activity (AC50) was 0.614 µM in experiment [1]; greater than 10 µM in [2]; greater than 10 µM in experiment [3]; 8 µM in experiment [4]; greater than 10 µM in [5]; greater than 10 µM in experiment [6]. The AC50 in [7] was greater than 10 µM; in experiment [8], 20.4 µM; in experiment [9], greater than 10 µM; in experiment [10], greater than 10 µM.
Take `CN(CCOc1ccc(NS(C)(=O)=O)cc1)CCc1ccc(NS(C)(=O)=O)cc1` [DOFETILIDE]: the AC50 in experiment [1] is greater than 30 µM; in experiment [2], greater than 30 µM; in experiment [3], greater than 10 µM; in experiment [4] it was greater than 300 µM; in experiment [5] it was greater than 30 µM; in experiment [6] it was 9.5 µM. The AC50 was greater than 10 µM in experiment [7], greater than 30 µM in experiment [8], greater than 30 µM in experiment [9] and greater than 30 µM in experiment [10].
Turning to `OCc1cc([C@@H](O)CNCCCCCCOCCOCc2c(Cl)cccc2Cl)ccc1O` [VILANTEROL], the AC50 in experiment [1] is 29 µM; in experiment [2] it was greater than 30 µM; in experiment [3], greater than 30 µM; in experiment [4], 44 µM; in [5] it was greater than 30 µM; in experiment [6], greater than 30 µM. In addition, the concentration at half-maximal activity (AC50) was greater than 30 µM in experiment [7], greater than 30 µM in experiment [8], 26 µM in [9] and greater than 30 µM in experiment [10].
As for `CC(C(=O)O)c1ccc(C(=O)c2cccs2)cc1` (stereo not given) [SUPROFEN], the AC50 in experiment [1] was greater than 10 µM; in experiment [2], greater than 10 µM; in experiment [3], greater than 10 µM; in [4] it was greater than 300 µM; in experiment [5], greater than 10 µM; in experiment [6], greater than 10 µM. Besides, the AC50 in experiment [7] was greater than 10 µM; in experiment [8], greater than 10 µM; in [9], greater than 10 µM; in experiment [10] it was 0.284 µM.
On to `NS(=O)(=O)c1cc2c(cc1Cl)NCNS2(=O)=O` [HYDROCHLOROTHIAZIDE], for which the AC50 is greater than 30 µM in experiment [1]; greater than 30 µM in [2]; greater than 10 µM in [3]; greater than 300 µM in [4]; greater than 10 µM in [5]; greater than 30 µM in experiment [6]. Also, the AC50 is greater than 10 µM in [7], greater than 30 µM in experiment [8], greater than 30 µM in [9] and greater than 30 µM in [10].
Consider `COC(=O)[C@@H]1CC2=CC(=O)CC[C@]2(C)[C@@]23O[C@@H]2C[C@@]2(C)[C@@H](CC[C@@]24CCC(=O)O4)[C@H]13` [EPLERENONE], for which the AC50 was greater than 30 µM in experiment [1]; greater than 30 µM in [2]; greater than 10 µM in [3]; greater than 300 µM in experiment [4]; greater than 30 µM in experiment [5]; greater than 30 µM in experiment [6]. In addition, the AC50 in [7], in experiment [8], in experiment [9] and in experiment [10] was greater than 30 µM each time.
With `COC(=O)N[C@H](C(=O)N1CCC[C@H]1c1nc(-c2ccc(-c3ccc(-c4c[nH]c([C@@H]5CCCN5C(=O)[C@@H](NC(=O)OC)C(C)C)n4)cc3)cc2)c[nH]1)C(C)C`, the AC50 in experiment [1] is greater than 30 µM; in experiment [2], greater than 30 µM; in experiment [3] it was greater than 30 µM; in experiment [4], 5.9 µM; in experiment [5], greater than 30 µM; in experiment [6], greater than 30 µM. Also, the AC50 in experiment [7], in experiment [8], in experiment [9] and in experiment [10] was greater than 30 µM throughout.
`CC(N)Cc1ccccc1` (stereo not given) [AMPHETAMINE]: the AC50 in experiment [1] is greater than 30 µM; in experiment [2], greater than 30 µM; in [3], greater than 30 µM; in experiment [4] it was greater than 300 µM; in [5], greater than 30 µM; in experiment [6], greater than 30 µM. In addition, the AC50 in [7] is greater than 30 µM; in experiment [8], 18 µM; in [9] it was greater than 30 µM; in experiment [10], greater than 30 µM.
As for `NC(=O)c1cnccn1` [PYRAZINAMIDE], the AC50 is 3.86 µM in experiment [1]; greater than 30 µM in experiment [2]; greater than 30 µM in experiment [3]; greater than 300 µM in experiment [4]; greater than 30 µM in [5]; greater than 30 µM in [6]. Further, the AC50 in experiment [7] was greater than 30 µM; in experiment [8] it was greater than 30 µM; in [9], 12.6 µM; in [10], greater than 30 µM.
With `NC1=NC(=O)C(c2ccccc2)O1` (stereo not given) [PEMOLINE], the AC50 was greater than 30 µM in experiment [1]; greater than 30 µM in experiment [2]; greater than 10 µM in experiment [3]; greater than 300 µM in [4]; greater than 10 µM in experiment [5]; greater than 30 µM in experiment [6]. In addition, the AC50 is greater than 10 µM in [7], greater than 30 µM in experiment [8], greater than 30 µM in [9] and greater than 30 µM in [10].
As to `COC(=O)N[C@H](C(=O)N[C@@H](Cc1ccccc1)[C@@H](O)CN(Cc1ccc(-c2ccccn2)cc1)NC(=O)[C@@H](NC(=O)OC)C(C)(C)C)C(C)(C)C` [ATAZANAVIR], the AC50 was greater than 30 µM in experiment [1]; 17.6 µM in [2]; greater than 10 µM in experiment [3]; 2 µM in [4]; greater than 10 µM in experiment [5]; greater than 10 µM in experiment [6]. The AC50 in experiment [7] is greater than 30 µM; in experiment [8], greater than 30 µM; in [9] it was greater than 30 µM; in [10], greater than 10 µM.
Regarding `CN1C(=O)CC(C)(c2ccccc2)C1=O` (stereo not given) [METHSUXIMIDE], the AC50 is greater than 10 µM in [1]; greater than 10 µM in experiment [2]; greater than 10 µM in experiment [3]; greater than 300 µM in [4]; greater than 10 µM in experiment [5]; greater than 10 µM in experiment [6]. For the same molecule, the AC50 in experiment [7], in [8], in [9] and in experiment [10] was greater than 10 µM in each case.

Usually AC50 stands for the concentration giving half of the maximal activity seen.

The record behind these values is ChEMBL document CHEMBL5291721, “A preclinical secondary pharmacology resource illuminates target-adverse drug reaction associations of marketed drugs” (Nat Commun, 2023).
